Data: patent publication US20120004215A1 (priority 2009, published 2012)

Molecular target: α7-subtype of nicotinic receptors (Mus musculus, UniProt P49582)
Assay type: in vivo, mice
Conditions: ex vivo, mouse hippocampal membranes; dose inhibiting specific binding of 3H-α-bungarotoxin (1 nM) by 50%

Chain of α7-subtype of nicotinic receptors (P49582 23-502): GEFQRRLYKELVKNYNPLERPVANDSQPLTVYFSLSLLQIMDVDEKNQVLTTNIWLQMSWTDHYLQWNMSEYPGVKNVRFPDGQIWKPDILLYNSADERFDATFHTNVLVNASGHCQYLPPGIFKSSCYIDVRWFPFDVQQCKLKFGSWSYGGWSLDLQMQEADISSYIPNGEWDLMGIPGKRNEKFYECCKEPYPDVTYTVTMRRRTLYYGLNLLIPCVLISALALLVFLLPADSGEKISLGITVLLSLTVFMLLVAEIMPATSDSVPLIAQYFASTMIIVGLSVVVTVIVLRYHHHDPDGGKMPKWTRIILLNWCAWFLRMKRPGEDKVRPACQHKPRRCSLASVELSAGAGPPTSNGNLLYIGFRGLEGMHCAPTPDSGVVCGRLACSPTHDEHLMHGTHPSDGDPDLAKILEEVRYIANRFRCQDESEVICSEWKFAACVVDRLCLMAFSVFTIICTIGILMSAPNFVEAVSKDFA

In the case of `O=c1c2ccccc2nnn1-c1cnc(N2CC[N+]3([O-])CCC2CC3)nc1` [Compound 1, 3-[2-(1-Oxy-1,4-diaza-bicyclo[3.2.2]non-4-yl)-pyrimidin-5-yl]-3H-benzo[d][1,2,3]-triazin-4-one], the “EC50 (mg/kg), Inhibition of 3H-α-Bungarotoxine Binding” value is reported as 9.4 mg/kg.
